# According to US12263139B2, “Use of cannabidiol in the treatment of tuberous sclerosis complex” (Jazz Pharmaceuticals Research UK Limited, priority 2017, dated 2025):
# Experiments:
# [1] = test system: AML 621-101 cells; assay: Transwell cell migration assay in AML 621-101 cells; assay type: cell-based
# Method: (§1) (i) Angiomyolipomas (AML) cells derived from a Tuberous Sclerosis Complex patient (621-101 cell-line), with a known loss of function of TSC2. […] Zeocin™ was purchased from LifeTechnologies (cat no: R25001) and was used to originally generate the stable cell line (by Prof. Lisa Henske) over two weeks of Zeocin™ selection and then for continued maintenance of the cells in tissue culture (at 100 μg/ml).
# Tsc2−/− and Tsc2+/+ cell lines were cultured and maintained in DMEM supplemented with 10% (v/v) FBS and 1% (v/v) penicillin-streptomycin in a humidified incubator (5% CO2 at 37° C.). The AML −/− cell lines were cultured and maintained in DMEM supplemented with 15% (v/v) FBS and 1% (v/v) penicillin-streptomycin in a humidified incubator (5% CO2 at 37° C.). For hypoxia, cells were put into a Binder CB150 hypoxic chamber set at 1% 02 for the indicated time points
# The stock concentration of CBD was made to 20 mM in dimethyl sulfoxide (DMSO). […]
# Transwell permeable supports with 6.5 mm diameter inserts, 8.0 μm pore size, and a polycarbonate membrane were used to perform migration assays. […] Cells were counted using a haemocytometer. […] The percentage of adherent cells was then determined by fixing the cells with methanol and acetone (1:1) for 20 minutes at 20° C. […] Crystal Violet stained cells were eluted with 1% (w/v) SDS and the absorbance was read at 550 nm on a Genova MK3 Lifescience.
# [2] = test system: pS6 positive cells; assay: Number of pS6 positive cells in zebrafish model of TSC; assay type: in vivo; conditions: for effect on average number of pS6 positive cells: Danieau's incubated
# Excerpt: A zebrafish model of TSC with a tsc2 gene deletion was used. This model has been previously published and validated (Kim et al. 2011). By mating the gene deletion animals with wild-type tsc2+/+ animals, heterozygote (tsc2+/−) zebrafish were also obtained and tested in this example.
# For both pS6 and TUNEL staining, non-consecutive sections were imaged using a Zeiss AxioImager microscope. Exposure time was kept constant during image acquisition and determined by the observation of a slide where primary antibody or enzyme solution was omitted. Pictures were taken with a 20× objective, using the AxioVision software, and coloured using Fiji ImageJ. All counting and measuring of cells was done in the original black and white pictures.
# Statistical analysis was performed in SPSS (IBM SPSS Statistics 22), except for the chi-square test, which was done using GraphPad Prism 5. Normality and sphericity were tested using the Kolmogorov-Smirnov and Mauchly's tests, respectively. Repeated measures two-way ANOVA tests were used to analyse the locomotor assay data and cell number, while a three-way ANOVA test was used to analyse cell size. Touch response (TR) between genotypes and treatments was analysed by chi-square test. Tests were followed by Tukey or Bonferroni post-hoc tests.
# To explore mTOR pathway activation in the different genotypes and treatments, immunohistochemistry was performed using a pS6 (Ser235/236) antibody.
# To better understand the apparent differences between groups, pS6 positive cells were counted for each genotype and treatment. A significant main effect of genotype was found, with tsc2−/− zebrafish sections showing more pS6 positive cells in the brain than tsc2+/+ and tsc2+/−(+173.3%) (FIG. 4A).
# [3] = test system: AML 621-101 cells; assay: Tumour spheroid growth (soft agar) assay in AML 621-101 cells; assay type: cell-based; conditions: 10 μM CBD
# Method: as §1
# The stock concentration of CBD was made to 20 mM in dimethyl sulfoxide (DMSO). CBD was added to culture media to final concentrations of either 5 μM or 10 μM, as indicated). The final concentration of the DMSO in the cell culture medium was at a maximum level of 0.05% (v/v).
# Two-layered soft agar assays were carried out in 6-well plates. All cell lines were plated in complete DMEM media in 0.35% (v/v) agar at (3*10^5) over a 0.6% (v/v) agar layer. The agar was then overlaid with complete DMEM media and spheroids were grown for 14 days at 37° C. in 5% CO2. Media were changed twice a week and new drug was added to media. Pictures were taken using an inverted AMG EVOS microscope equipped with an Olympus camera. Volume of tumour spheroids was measured using ImageJ software.
# [4] = test system: Panc-1 cells; assay: MTT cell viability assay in Panc-1; assay type: cell-based; conditions: Homo sapiens, 50 μM CBD, 72 h, FIG. 6A, read-out: growth inhibition
# Method: PANC-1 is a human pancreatic carcinoma, epithelial-like cell line; PANC-1 cells are used as an in vitro model of non-endocrine pancreatic cancer for tumorigenicity studies.
# Cell viability was analyzed by the MTT [3-(4,5-dimethylthiazol-2-yl)-2,5-diphenyl tetrazolium bromide] assay. Pancreatic cancer cells were seeded onto each well of a 96-well plate. After 72 h of treatment with CBD, MTT solution 5 mg/ml in PBS was added to each well. The plates were then incubated at 37° C. for an additional 4 h to allow MTT to form formazan crystals by reacting with metabolically active cells. The formazan crystals were solubilized in a 1N isopropanol/HCl 10% solution at 37° C., on a shaking table for 20 min. The absorbance values of the solution in each well were measured at 570 nm using a microplate reader. Cell viability was determined by the formula: cell viability (%)=(absorbance of the treated wells−absorbance of the blank control wells)/(absorbance of the negative control wells−absorbance of the blank control wells)×100%. All MTT experiments were performed in triplicate and repeated at least three times.
# The growth inhibition induced by different concentrations (0.04-50 μM) of CBD on human Panc-1 at 72 h from the beginning of the treatment was evaluated with MTT assay.
smiles,measurement,setting,value
"C=C(C)[C@@H]1CCC(C)=C[C@H]1c1c(O)cc(CCCCC)cc1O [CBD, Cannabidiol]",cell migration compared with rapamycin,[1]; 10 μM CBD,reduced cell migration to a significantly greater extent than rapamycin
same,cell migration,[1]; CBD at both 5 μM and 10 μM,significantly block
same,change in average number of pS6 positive cells,"[2]; main effect of treatment, compared to DMSO group, FIG. 4B",−77.1%
same,change in average number of pS6 positive cells,"[2]; main effect of treatment, compared to Danieau's group, FIG. 4B",−63.2%
same,effect on average number of pS6 positive cells,[2]; tsc2+/+ zebrafish,no significant effect
same,effect on average number of pS6 positive cells,[2]; tsc2+/− zebrafish,no significant effect
same,change in average number of pS6 positive cells,"[2]; tsc2−/− zebrafish, for the DMSO group, FIG. 4C",−58.9%
same,change in average number of pS6 positive cells,"[2]; tsc2−/− zebrafish, for the Danieau's group, FIG. 4C",−55.4%
same,tumour spheroid formation,[3],sufficient to block tumour spheroid formation
same,inhibition at 50 µM,[4],41%
